The source of these data is publication PMC11547735, “Effect of Oral Administration of Collagen Peptide OG-5 on Advanced Atherosclerosis Development in ApoE^−/− Mice” (Nutrients, 2024).

Read-outs that look alike come from different tables or passages of the source. Square brackets hold non-standard residues; d marks the D form. Peptide text beside a SMILES is read from it. Hyp = O=C(O)[C@@H]1C[C@@H](O)CN1 Where only a bound is given, the exact number is not on record here.

The term Papp denotes the rate of passage across a membrane or cell layer, normalised by area and donor concentration. Usually amount remaining stands for what is left of the initial amount, in per cent. What is called Tmax is the time at which the peak concentration occurs.

Data set [1] deals with Caco-2 cell monolayers. Particulars: results reported for other peptides; cited from earlier work. From the text:
According to the previous study, a Papp value higher than 1.0 × 10^−5 cm ...

Data set [2] can be described thus: Body weight and organ index of ApoE−/− mice after oral administration. Particulars: n = 8. The format is in vivo, mouse. How it is done: The animal study was performed in compliance with the requirements of the Guide for the Care and Use of Laboratory Animals (NIH publication No.86-23, revised 1996) and was approved by the Welfare Committee of Pony Testing International Group Co., Ltd., Beijing, China (PONY-2021-FL-12, approval date: 5 December 2021). The 7-week-old male ApoE^−/− mice and C57BL/6J mice were purchased from Beijing Vital River Laboratory Animal Technology Co., Ltd. (Beijing, China). The mice were acclimatized for a period of one week in a pathogen-free environment, maintained under a controlled 12-h light/dark cycle at a constant temperature of 21 °C. During this period, they had unrestricted access to a standard rodent chow diet and tap water. Following acclimatization, the mice were assigned to experimental groups randomly, with each group consisting of eight mice.
(§1) The establishment of the AS model in ApoE^−/− mice was divided into two stages. At I stage, 8-week-old male ApoE^−/− mice were fed a Western-type diet (42% fat; 21% anhydrous milk fat, 0.15% cholesterol) for 16 weeks to establish an early AS model. At II stage, a high-fat and high-cholesterol diet (containing 5% cholesterol, 0.5% sodium cholate, 20% fat) was replaced at the 17th week to accelerate the progress of AS till the 24th week. The C57BL6/J mice were utilized as the normal control group and maintained on a standard maintenance diet (20% protein; 5% fat; 50% carbohydrate; 5% cellulose; 10% vitamins and minerals). The mice were subsequently randomized into 4 groups, each consisting of 8 animals: (i) M Group (0.9% saline for ApoE^−/− mice), (ii) Sustainable OG-5 intervention group (50 mg/kg bw) during two stages, (iii) OG-5 treatment group (150 mg/kg bw), and (iv) aspirin group (25 mg/kg bw) at II stage. The OG-5 and aspirin were orally administered to mice every other day. Animals that were not subjected to any treatment and maintained on a normal diet served as the control group (N group). The body weight was monitored every week.
(§2) After 24-week treatment, the mice were fasted overnight and sacrificed. Blood was collected to stand at room temperature for 2 h, and the serum was separated by centrifugation for further analysis.

Data set [3] has as its system ApoE^−/− mice. Description: Serum lipid levels in ApoE−/− mice (advanced atherosclerosis model). To be noted: aspirin 25 mg/kg bw oral every other day at stage II, n = 8. The format is in vivo, mouse.
Text: as §1, §2

The conditions of data set [4]: cited from earlier work. From the text:
The application of peptides is usually limited for the short half-life and is commonly due to fast renal clearance as well as enzymatic degradation, including aminopeptidases, carboxypeptidases, dipeptidases and endopeptidases occurring during systemic circulation.

In data set [5] the test system is Caco-2 cell monolayers. As to the kind of experiment: Transport across Caco-2 cell monolayers. Type of data set: in vitro ADME, human. To be noted: Caco-2 monolayers 21 days, TEER > 800 Ω·cm^2, apical to basolateral, HBSS, pre-incubation 1 h 37 °C, incubation 2 h, HPLC. How it is done: The Caco-2 cell culture and the establishment of the transepithelial transport model were according to the previous study. The Caco-2 cells (10–20 passages) were grown in DMEM supplemented with 10% FBS and 1% penicillin streptomycin at 37 °C.
For the establishment of the transepithelial transport model, Caco-2 cells were seeded onto permeable polyester inserts (12 mm diameter, with a growth surface area of 1.12 cm^2 and a pore size of 0.4 μm, sourced from Costar, Corning, NY, USA) placed in 12-well transwell plates at a density of 1 × 10^5 cells per insert. Over a period of 21 days, the cell culture medium was replaced cautiously every two days to facilitate the differentiation of Caco-2 cells into fully confluent monolayers. […] The Caco-2 cell monolayers were delicately rinsed twice with HBSS and subsequently pre-incubated at 37 °C for 1 h. […]
Transport percentage (%) is calculated by the following equation: (1) Transport percentage %=transported amount of peptide in basolateral side/intial amount of peptide in apical side×100
The apparent permeability coefficient (Papp, cm/s) was calculated as follows:(2) Papp=dQ/dt×1/A×1/C0 where dQ/dt is the permeability rate (mmol/s); A is the area of the membrane (cm^2); C0 is the initial peptide concentration in the donor chamber (mM).

Data set [6] in a line: Peptide stability in plasma. The format is in vitro ADME. Particulars: rat plasma (heparinized), 0.5 mM, 37 °C, 8 h incubation, 3 kDa ultrafiltration, HPLC-UV peak area. How it is done:
The assessment of peptide stability in plasma was conducted with modifications to a previously described method. Briefly, blood samples were collected in heparinized tubes and immediately centrifuged to separate the plasma supernatant. Subsequently, OG-5 was added to achieve a final concentration of 0.5 mM, and the mixture was incubated at 37 °C. At specified time points (0, 0.5, 1.0, 2.0, 4.0, and 8.0 h), the mixture was centrifuged using a 3 kDa ultrafiltration centrifugal tube to separate the filtrate. The filtrate was then analyzed using a Shimadzu LC-15 HPLC system, equipped with an SPD-15 ultraviolet detector (Kyoto, Japan). The HPLC analysis conditions included an injection volume of 10 μL, a flow rate of 1 mL/min, and a gradient elution program: 0–25 min, 0–25% acetonitrile (buffer B); 25–30 min, 25–35% buffer B; 30–35 min, 35–100% buffer B. The quantity of peptide OG-5 in the plasma was determined based on its peak area.

Data set [7] in a line: In vivo absorption experiment on rats. Particulars: rat. How it is done: The peptide absorption in vivo was conducted as previously described. The rats were orally administered with peptide OG-5 (1.0 g/kg bw). Blood samples were obtained via a minimal incision at the tail tip at 0, 0.5, 1, and 2 h after oral administration. The collected blood was transferred into 5 kDa ultrafiltration centrifugal tube, and the filtrate was collected for HPLC analysis. The elution program was conducted as follows: 0–5 min, 10–15% buffer B (acetonitrile); 5–20 min, 15–25% buffer B; 20–25 min, 25–100% buffer B.

Data set [8] concerns ApoE^−/− mice. Description: Bleeding time after long-term oral administration (Figure S1). The format is in vivo, mouse. Particulars: n = 8. From the text:
The following supporting information can be downloaded at: https://www.mdpi.com/article/10.3390/nu16213752/s1, Figure S1: Bleeding time after oral administration of peptide OG-5 in ApoE^−/− mice (n = 8).

[9] abbreviates: aspirin 25 mg/kg bw oral every other day at stage II.
The mark [10] stands for this setting: OG-5 50 mg/kg bw oral every other day, stages I and II.
Setting [11] is: OG-5 150 mg/kg bw oral every other day at stage II.
The mark [12] stands for this setting: long-term oral 150 mg/kg bw, bleeding time.

In the case of “RVPSL [literature antihypertensive peptide, ovotransferrin 328–332, compared for Caco-2 Papp]”, in data set [1], the Papp was 7e-06 cm/s.
Take `CC(=O)Oc1ccccc1C(=O)O` [Aspirin, reference compound]: in data set [2] (setting [9]), the “Final Body weight” value stood at 28.8 ± 1.7 g, the “Initial Body weight” value stood at 27.7 ± 2.8 g, the Spleen index was found to be 4.99 ± 2.64 mg/g bw and the Thymus index turned out to be 0.83 ± 0.12 mg/g bw. For the same compound, in data set [3], the HDL-C was found to be 0.64 ± 0.37 mM, the LDL-C is given as 9.55 ± 1.89 mM, the TC was determined as 41.09 ± 6.05 mM and the TG was 3.43 ± 0.96 mM.
For TNGIIR, in data set [1], the Papp is 4.9e-06 cm/s.
In the case of PGEOG, the half-life in plasma in data set [4] is 4.3 h.
As to `O=C(O)CC[C@H](NC(=O)CNC(=O)[C@@H]1C[C@@H](O)CN1)C(=O)N[C@@H](Cc1ccccc1)C(=O)NCC(=O)O` [OG-5, OGEFG] (H-[Hyp]GEFG-OH), the “Initial Body weight” value in data set [2] (OG-5 50 mg/kg bw oral every other day, stages I and II (24 weeks), mean ± standard) is given as 24.5 ± 1.0 g. The “Final Body weight” value in data set [2] (OG-5 50 mg/kg bw oral every other day, stages I and II (24 weeks)) is listed as 27.7 ± 2.2 g. In data set [2] (setting [10]), this compound displayed a Spleen index of 4.16 ± 0.99 mg/g bw and a Thymus index of 0.69 ± 0.15 mg/g bw. In data set [2] (OG-5 150 mg/kg bw oral every other day at stage II (weeks 17-24)), the “Initial Body weight” value was 27.8 ± 2.5 g. For the same compound, in data set [2] (setting [11]), the “Final Body weight” value was determined as 28.9 ± 2.0 g, the Spleen index came out at 4.80 ± 2.13 mg/g bw and the Thymus index was 0.79 ± 0.13 mg/g bw. Besides, in data set [5], the Papp was found to be 1.8e-05 cm/s. Also, the Transport percentage in data set [5] (spread printed ± 0.57) turned out to be 14.40%. For the same compound, the “peptide remaining intact in plasma” value in data set [6] is recorded as greater than 70%. In addition, the amount remaining at 8 h in data set [6] (read-out: peptide remaining intact in plasma) amounted to 78.2%. The Tmax in data set [7] (po, 1 g/kg) is 2 h. Moreover, in data set [7] (rats, oral 1.0 g/kg bw, tail blood at 0, 0.5, 1, 2 h, 5 kDa ultrafiltration, HPLC, read-out: peak plasma concentration), the Cmax was found to be 77.8 µM. For the same compound, in data set [8] (setting [12]), the “bleeding risk compared to aspirin” value is reported as “lower bleeding risk” and the “bleeding risk compared with M model” value is “a little bleeding risk”. The bleeding risk entry in data set [8] (low-dose sustainable intervention 50 mg/kg bw from stage I) is “without bleeding risks”.
